From patent US20100056525A1, “5- AND 6- SUBSTITUTED BENZIMIDAZOLE THIOPHENE COMPOUNDS” (priority 2006, published 2010) come the findings set out here.

pIC50: −log10 of the molar value.

In assay [1] the target is T1, PLK1 kinase domain (Homo sapiens, UniProt P53350).
T1 construct: made in house; host or cells: baculovirus infected T. ni cells
The assay can be described thus: Assay for Inhibition of PLK1 (SPA, 33P-ATP). In kind it is biochemical. As to conditions: 2 nM PLK1 kinase domain, 1 μM ATP, 22° C.; read-out: PLK1 pIC50 (converted). The protocol:
A. Preparation of 6× N-Terminal His-Tagged PLK Kinase Domain
All procedures were performed at 4° C. Cells were lysed in 50 mM HEPES, 200 mM NaCl, 50 mM imidazole, 5% glycerol; pH 7.5. The homogenate was centrifuged at 14K rpm in a SLA-1500 rotor for 1 hr and the supernatant filtered through a 1.2 micron filter. The supernatant was loaded onto a Nickel chelating Sepharose (Amersham Pharmacia) column and washed with lysis buffer. Protein was eluted using 20%, 30% and 100% buffer B steps where buffer B was 50 mM HEPES, 200 mM NaCl, 300 mM imidazole, 5% glycerol; pH 7.5. Fractions containing PLK were determined by SDS-PAGE. Fractions containing PLK were diluted five-fold with 50 mM HEPES, 1 mM DTT, 5% glycerol; pH 7.5, then loaded on an SP Sepharose (Amersham Pharmacia) column. After washing the column with 50 mM HEPES, 1 mM DTT, 5% glycerol; pH 7.5, PLK was step eluted with 50 mM HEPES, 1 mM DTT, 500 mM NaCl; 5% glycerol; pH 7.5. PLK was concentrated using a 10 kDa molecular weight cutoff membrane and then loaded onto a Superdex 200 gel filtration (Amersham Pharmacia) column equilibrated in 25 mM HEPES, 1 mM DTT, 500 mM NaCl, 5% glycerol; pH 7.5. Fractions containing PLK were determined by SDS-PAGE. PLK was pooled, aliquoted and stored at −80° C. Samples were quality controlled using mass spectrometry, N-terminal sequencing and amino acid analysis.
B. Enzyme Activity +/− Inhibitors was Determined as Follows:
All measurements were obtained under conditions where signal production increased linearly with time and enzyme. Test compounds were added to white 384-well assay plates (0.1 μL for 10 μL and some 20 μL assays, 1 μL for some 20 μL assays) at variable known concentrations in 100% DMSO. DMSO (1-5% final, as appropriate) and EDTA (65 mM in reaction) were used as controls.
Reaction Mix (10 or 20 μL) was quickly added to each well immediately following addition of enzyme via automated liquid handlers and incubated 1-1.5 h at 22° C. The 20 μL enzymatic reactions were stopped with 50 μL of stop mix (50 mM EDTA, 4.0 mg/mL Streptavidin SPA beads in Standard Dulbecco's PBS (without Mg^2+ and Ca^2+), 50 μM ATP) per well. The 10 μL reactions were stopped with 10 μL of stop mix (50 mM EDTA, 3.0 mg/mL Streptavidin-coupled SPA Imaging Beads (“LeadSeeker”) in Standard Dulbecco's PBS (without Mg^2+ and Ca^2+), 50 μM ATP) per well. Plates were sealed with clear plastic seals, spun at 500×g for 1 min or settled overnight, and counted in Packard TopCount for 30 seconds/well (regular SPA) or imaged using a Viewlux imager (LeadSeeker SPA). Signal above background (EDTA controls) was converted to percent inhibition relative to that obtained in control (DMSO-only) wells.

Assay [2] deals with HCT-116 (human colon) cells. The assay is described as follows: Cell-Titer Glo Cell Growth Inhibition Assay. It counts as cell-based. Conditions: HCT-116 cells, 72 h incubation, CellTiter-Glo, read-out: HCT116 IC50. The protocol:
A549-L (human lung), Colo 205 (human colon), HCT-116 (human colon), HT29 (human colon), MX-1 (human breast), SKOV3 (human ovary) and P388 (murine leukemia) cell lines were cultured in RPM11640 containing 10% fetal bovine serum at 37° C. in a 5% CO2 incubator. Cell lines were split into T75 flasks (Falcon #353136) two to three days prior to assay set up at density which yields approximately 70-80% confluency at time of harvest for assay. Cells were harvested using 0.25% trypsin with EDTA (Glibco/Invitrogen #25200-056), Cell counts were performed on cell suspensions using Trypan Blue exclusion staining, cells were then plated in 105 µL of culture media per well at the following densities in 96 well Costar #3916 black flat bottom plates: A549-L 500 cells/well, Colo205 500 cells/well, HCT-116 500 cells/well, HT29 500 cells/well, MX-1 500 cells/well, SKOV3 500 cells/well and P388 250 cells/well. All plates were placed at 5% CO2 37° C. overnight and then test compounds were added the following day. One plate of each cell type was treated with CellTiter-Glo (Promega #G7573) for a day 0 proliferation measurement and read as described below. The test compounds were prepared in clear U bottom polypropylene 96 well plates (Falcon #35-1190 with consecutive two fold dilutions. 9 uL of these dilutions was added into each well of the cell plates. The final concentration of DMSO in all wells was 0.15%. Cells were incubated at 37° C., 5% CO2 for 72 h. Following 72 h of incubation with compounds each plate was developed and read. CellTiter-Glo reagent was added to assay plates using a volume equivalent to the cell culture volume in the wells. Plates were shaken for approximately 2 min and incubated at rt for approximately 15 min and the chemiluminescent signal was read on the Victor V or Envison 2100 reader. […] Concentration of compound that inhibited 50% of cell growth (IC50) was analyzed by 4 or 6 parameter fit of data using XLfit, value of no cell addition was substracted from all samples for background.

T1 sequence (P53350 21-346): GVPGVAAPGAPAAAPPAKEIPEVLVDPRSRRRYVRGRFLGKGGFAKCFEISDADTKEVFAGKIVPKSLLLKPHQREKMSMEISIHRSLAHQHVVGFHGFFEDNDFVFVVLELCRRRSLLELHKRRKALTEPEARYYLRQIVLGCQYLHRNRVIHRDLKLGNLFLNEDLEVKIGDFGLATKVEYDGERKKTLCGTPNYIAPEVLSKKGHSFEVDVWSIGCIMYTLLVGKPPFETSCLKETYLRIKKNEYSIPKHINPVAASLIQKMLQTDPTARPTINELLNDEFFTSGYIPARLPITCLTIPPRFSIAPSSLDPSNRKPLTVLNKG

As to `C[C@@H](Oc1cc(-n2cnc3cc(-c4ccc(NCCCN5CCN(C)CC5)nc4)ccc32)sc1C(N)=O)c1ccccc1Cl` [Example 31, 3-{[(1R)-1-(2-chlorophenyl)ethyl]oxy}-5-[5-(6-{[3-(4-methyl-1-piperazinyl)propyl]amino}-3-pyridinyl)-1H-benzimidazol-1-yl]-2-thiophenecarboxamide], the IC50 in assay [1] was less than 100 nM. Moreover, the pIC50 in assay [2] is greater than 6.30.

As to `C[C@@H](Oc1cc(-n2cnc3cc(-c4ccc(NCCN5CCOCC5)nc4)ccc32)sc1C(N)=O)c1ccccc1Cl` [Example 32, 3-{[(1R)-1-(2-chlorophenyl)ethyl]oxy}-5-[5-(6-{[2-(4-morpholinyl)ethyl]amino}-3-pyridinyl)-1H-benzimidazol-1-yl]-2-thiophenecarboxamide], the IC50 in assay [1] was less than 100 nM. The pIC50 in assay [2] was greater than 6.30.

On to `C[C@@H](Oc1cc(-n2cnc3cc(-c4ccc(N(C)CCCN(C)C)nc4)ccc32)sc1C(N)=O)c1ccccc1Cl` [Example 33, 3-{[(1R)-1-(2-chlorophenyl)ethyl]oxy}-5-(5-[6-[[3-(dimethylamino)propyl](methyl)amino]-3-pyridinyl]-1H-benzimidazol-1-yl)-2-thiophenecarboxamide], for which the IC50 in assay [1] is less than 100 nM. Also, the pIC50 in assay [2] is greater than 6.30.

Turning to `C[C@@H](Oc1cc(-n2cnc3cc(-c4ccc(NCCCN5CCN(C)CC5)nn4)ccc32)sc1C(N)=O)c1ccccc1Cl` [Example 34, 3-{[(1R)-1-(2-chlorophenyl)ethyl]oxy}-5-[5-(6-{[3-(4-methyl-1-piperazinyl)propyl]amino}-3-pyridazinyl)-1H-benzimidazol-1-yl]-2-thiophenecarboxamide], the IC50 in assay [1] is less than 100 nM. Besides, the negative logarithm of the IC50 (pIC50) in assay [2] was 6.00 to 6.30.
